Laboratory results as given in article PMC5862616 (Oncotarget, 2018).

How the values were obtained:
[1] = target: VEGFR2 (Homo sapiens, UniProt P35968); assay: scanMAX kinase panel
[2] = target: TEK (TIE2) (Homo sapiens, UniProt Q02763); assay: scanMAX kinase panel
[3] = target: MET (Homo sapiens, UniProt P08581); assay: scanMAX kinase panel
[4] = target: T1, FLT3 (Homo sapiens, UniProt P36888); assay: scanMAX kinase panel
T1 sequence (P36888 27-993): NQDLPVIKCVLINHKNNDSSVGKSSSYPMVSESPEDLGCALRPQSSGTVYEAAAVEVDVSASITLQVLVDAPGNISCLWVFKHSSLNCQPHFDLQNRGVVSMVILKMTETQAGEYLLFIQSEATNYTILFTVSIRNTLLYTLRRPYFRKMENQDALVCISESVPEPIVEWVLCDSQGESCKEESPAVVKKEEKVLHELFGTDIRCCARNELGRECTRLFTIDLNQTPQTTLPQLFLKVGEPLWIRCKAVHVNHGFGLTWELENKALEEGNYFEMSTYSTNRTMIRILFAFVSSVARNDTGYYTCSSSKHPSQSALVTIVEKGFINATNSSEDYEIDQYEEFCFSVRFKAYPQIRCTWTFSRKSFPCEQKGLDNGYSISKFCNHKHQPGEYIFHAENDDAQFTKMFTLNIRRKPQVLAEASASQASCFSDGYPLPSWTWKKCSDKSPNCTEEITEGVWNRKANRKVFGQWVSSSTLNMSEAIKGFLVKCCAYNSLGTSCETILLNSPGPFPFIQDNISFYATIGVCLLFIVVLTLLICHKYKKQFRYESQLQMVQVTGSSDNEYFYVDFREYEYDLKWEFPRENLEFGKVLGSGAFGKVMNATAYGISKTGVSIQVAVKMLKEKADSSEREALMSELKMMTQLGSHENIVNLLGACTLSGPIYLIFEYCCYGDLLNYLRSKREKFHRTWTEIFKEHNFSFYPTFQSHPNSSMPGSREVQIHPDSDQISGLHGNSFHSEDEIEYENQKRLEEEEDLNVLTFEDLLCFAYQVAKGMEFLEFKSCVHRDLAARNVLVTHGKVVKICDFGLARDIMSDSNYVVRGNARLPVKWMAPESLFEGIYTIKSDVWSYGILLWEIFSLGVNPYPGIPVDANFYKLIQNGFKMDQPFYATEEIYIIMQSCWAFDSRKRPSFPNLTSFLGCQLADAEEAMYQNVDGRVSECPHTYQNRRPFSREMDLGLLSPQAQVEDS

[5] = target: T2, DDR2 (Homo sapiens, UniProt Q16832); assay: scanMAX kinase panel
T2 sequence (Q16832 22-855): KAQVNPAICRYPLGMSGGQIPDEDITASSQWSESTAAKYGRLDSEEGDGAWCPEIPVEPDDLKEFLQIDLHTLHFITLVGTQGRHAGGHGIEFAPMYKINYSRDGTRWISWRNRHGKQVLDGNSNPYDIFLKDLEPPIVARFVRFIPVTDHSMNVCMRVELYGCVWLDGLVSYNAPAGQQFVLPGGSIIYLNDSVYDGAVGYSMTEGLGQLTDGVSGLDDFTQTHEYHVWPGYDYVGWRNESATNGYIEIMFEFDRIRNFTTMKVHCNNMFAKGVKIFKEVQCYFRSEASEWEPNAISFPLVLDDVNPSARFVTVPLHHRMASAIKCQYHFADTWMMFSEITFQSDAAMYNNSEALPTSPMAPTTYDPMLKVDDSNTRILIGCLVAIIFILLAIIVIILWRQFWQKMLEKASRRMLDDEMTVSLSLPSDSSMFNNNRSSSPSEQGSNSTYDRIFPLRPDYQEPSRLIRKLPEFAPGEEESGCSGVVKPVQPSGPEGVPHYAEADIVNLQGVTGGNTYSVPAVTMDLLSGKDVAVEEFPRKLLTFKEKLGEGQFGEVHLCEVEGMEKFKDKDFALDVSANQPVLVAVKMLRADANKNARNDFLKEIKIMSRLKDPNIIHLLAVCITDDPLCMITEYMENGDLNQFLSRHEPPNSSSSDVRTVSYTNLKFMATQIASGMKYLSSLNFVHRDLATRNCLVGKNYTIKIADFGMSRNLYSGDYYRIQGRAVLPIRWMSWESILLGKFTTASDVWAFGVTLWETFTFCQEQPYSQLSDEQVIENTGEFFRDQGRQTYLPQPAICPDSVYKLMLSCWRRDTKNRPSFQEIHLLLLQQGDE

[6] = test system: MKNK1/2 (p-eIF4E S209) in KM-12 cells; assay: Western blot of p-eIF4E S209 in KM-12 cells; assay type: cell-based; details: KM-12 cells, 2 hours, western blot; for p-eIF4E reduction (MKNK1/2 inhibition, in words): b12: 100, 500, 1000 nM
Procedure: 20 μg NTRK1 fusion confirmation
T20 (ThermoScientific, Rockford, IL) for 30 minutes. MiniPrep cat# R2051 following manufacturer ’s protocol. […]
(1:2000) (Sigma-Aldrich), HRP-conjugated mouse or primers. The primer sequences are TPM3_Ex3B_F5:
Chalfont, UK). All western blots were developed using Ex12_R5: […]. PCR was […]

[7] = target: MKNK2 (Homo sapiens, UniProt Q9HBH9); assay: scanMAX kinase panel
Chain of MKNK2 (Q9HBH9 whole entry): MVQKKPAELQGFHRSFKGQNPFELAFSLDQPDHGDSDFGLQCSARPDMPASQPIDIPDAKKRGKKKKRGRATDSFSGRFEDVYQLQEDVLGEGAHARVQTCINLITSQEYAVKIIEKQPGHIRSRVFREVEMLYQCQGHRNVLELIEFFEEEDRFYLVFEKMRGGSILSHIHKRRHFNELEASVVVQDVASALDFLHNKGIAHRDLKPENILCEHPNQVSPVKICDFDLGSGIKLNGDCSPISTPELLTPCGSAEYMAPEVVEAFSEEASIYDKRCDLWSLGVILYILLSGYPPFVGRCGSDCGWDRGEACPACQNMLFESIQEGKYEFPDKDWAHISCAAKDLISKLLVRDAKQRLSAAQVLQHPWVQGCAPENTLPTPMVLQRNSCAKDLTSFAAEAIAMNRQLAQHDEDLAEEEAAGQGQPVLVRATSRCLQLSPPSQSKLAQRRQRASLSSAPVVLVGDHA

Chain of TEK (TIE2) (Q02763 23-1124): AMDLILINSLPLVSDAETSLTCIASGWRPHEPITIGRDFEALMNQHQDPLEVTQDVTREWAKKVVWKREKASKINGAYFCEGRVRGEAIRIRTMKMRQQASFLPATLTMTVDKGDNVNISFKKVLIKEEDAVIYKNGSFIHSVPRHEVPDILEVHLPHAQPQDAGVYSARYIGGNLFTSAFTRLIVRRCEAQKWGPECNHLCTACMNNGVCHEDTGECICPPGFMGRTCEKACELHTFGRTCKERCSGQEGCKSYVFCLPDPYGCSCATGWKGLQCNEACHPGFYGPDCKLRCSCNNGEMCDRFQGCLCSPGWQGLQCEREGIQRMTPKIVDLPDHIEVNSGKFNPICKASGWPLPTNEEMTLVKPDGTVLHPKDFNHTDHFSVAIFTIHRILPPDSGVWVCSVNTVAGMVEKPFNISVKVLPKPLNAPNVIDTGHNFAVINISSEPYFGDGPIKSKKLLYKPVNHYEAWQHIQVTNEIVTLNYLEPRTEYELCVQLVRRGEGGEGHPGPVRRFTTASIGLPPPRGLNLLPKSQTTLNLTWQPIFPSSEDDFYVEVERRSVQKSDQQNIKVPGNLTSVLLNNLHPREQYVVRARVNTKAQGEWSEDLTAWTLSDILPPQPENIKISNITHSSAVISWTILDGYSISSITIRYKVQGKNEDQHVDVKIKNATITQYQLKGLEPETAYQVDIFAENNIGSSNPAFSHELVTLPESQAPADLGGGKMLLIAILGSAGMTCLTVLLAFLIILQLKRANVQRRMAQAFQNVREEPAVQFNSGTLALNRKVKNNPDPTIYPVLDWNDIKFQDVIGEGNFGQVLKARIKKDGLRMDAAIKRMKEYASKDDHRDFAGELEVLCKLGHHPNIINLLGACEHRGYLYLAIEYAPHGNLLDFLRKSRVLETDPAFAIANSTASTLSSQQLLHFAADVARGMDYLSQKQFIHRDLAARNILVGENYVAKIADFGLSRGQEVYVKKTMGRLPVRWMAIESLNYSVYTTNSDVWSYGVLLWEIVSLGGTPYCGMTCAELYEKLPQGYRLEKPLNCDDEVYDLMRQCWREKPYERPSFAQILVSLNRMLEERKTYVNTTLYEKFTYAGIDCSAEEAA
Chain of MET (P08581 25-1390): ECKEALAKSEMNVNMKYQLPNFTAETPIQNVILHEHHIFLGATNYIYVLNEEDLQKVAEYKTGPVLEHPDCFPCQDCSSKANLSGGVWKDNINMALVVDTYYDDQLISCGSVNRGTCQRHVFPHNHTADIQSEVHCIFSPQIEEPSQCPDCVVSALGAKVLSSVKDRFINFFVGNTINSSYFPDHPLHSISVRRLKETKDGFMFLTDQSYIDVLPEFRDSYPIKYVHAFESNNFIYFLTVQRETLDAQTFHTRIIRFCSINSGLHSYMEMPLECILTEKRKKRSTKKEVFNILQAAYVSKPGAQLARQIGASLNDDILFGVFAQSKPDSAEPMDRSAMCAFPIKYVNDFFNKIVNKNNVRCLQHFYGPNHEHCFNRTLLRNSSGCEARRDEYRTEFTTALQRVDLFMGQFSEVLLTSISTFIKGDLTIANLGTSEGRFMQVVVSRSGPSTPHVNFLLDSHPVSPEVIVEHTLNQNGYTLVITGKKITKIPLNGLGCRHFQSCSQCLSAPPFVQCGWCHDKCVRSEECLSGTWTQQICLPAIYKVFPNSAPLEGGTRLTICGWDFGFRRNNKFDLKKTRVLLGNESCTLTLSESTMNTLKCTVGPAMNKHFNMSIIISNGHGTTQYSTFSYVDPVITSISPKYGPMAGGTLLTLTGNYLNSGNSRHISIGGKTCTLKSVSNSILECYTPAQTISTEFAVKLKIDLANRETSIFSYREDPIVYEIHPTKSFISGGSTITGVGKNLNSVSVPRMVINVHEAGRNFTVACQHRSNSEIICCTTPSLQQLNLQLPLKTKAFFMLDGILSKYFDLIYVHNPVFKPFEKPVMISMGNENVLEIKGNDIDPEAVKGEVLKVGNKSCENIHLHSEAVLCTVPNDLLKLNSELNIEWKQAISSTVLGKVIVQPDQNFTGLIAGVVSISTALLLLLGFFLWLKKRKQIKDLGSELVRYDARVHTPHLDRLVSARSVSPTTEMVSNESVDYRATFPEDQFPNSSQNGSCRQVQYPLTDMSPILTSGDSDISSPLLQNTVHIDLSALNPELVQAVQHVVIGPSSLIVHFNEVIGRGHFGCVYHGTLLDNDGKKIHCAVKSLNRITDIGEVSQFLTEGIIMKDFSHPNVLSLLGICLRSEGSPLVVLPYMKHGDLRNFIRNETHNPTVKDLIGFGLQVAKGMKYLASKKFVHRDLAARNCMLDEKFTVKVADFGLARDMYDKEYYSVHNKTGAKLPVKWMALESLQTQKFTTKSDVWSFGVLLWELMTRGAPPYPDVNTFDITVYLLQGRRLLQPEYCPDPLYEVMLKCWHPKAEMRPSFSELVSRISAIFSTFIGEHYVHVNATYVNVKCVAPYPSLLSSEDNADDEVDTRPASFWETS
Chain of VEGFR2 (P35968 20-1356): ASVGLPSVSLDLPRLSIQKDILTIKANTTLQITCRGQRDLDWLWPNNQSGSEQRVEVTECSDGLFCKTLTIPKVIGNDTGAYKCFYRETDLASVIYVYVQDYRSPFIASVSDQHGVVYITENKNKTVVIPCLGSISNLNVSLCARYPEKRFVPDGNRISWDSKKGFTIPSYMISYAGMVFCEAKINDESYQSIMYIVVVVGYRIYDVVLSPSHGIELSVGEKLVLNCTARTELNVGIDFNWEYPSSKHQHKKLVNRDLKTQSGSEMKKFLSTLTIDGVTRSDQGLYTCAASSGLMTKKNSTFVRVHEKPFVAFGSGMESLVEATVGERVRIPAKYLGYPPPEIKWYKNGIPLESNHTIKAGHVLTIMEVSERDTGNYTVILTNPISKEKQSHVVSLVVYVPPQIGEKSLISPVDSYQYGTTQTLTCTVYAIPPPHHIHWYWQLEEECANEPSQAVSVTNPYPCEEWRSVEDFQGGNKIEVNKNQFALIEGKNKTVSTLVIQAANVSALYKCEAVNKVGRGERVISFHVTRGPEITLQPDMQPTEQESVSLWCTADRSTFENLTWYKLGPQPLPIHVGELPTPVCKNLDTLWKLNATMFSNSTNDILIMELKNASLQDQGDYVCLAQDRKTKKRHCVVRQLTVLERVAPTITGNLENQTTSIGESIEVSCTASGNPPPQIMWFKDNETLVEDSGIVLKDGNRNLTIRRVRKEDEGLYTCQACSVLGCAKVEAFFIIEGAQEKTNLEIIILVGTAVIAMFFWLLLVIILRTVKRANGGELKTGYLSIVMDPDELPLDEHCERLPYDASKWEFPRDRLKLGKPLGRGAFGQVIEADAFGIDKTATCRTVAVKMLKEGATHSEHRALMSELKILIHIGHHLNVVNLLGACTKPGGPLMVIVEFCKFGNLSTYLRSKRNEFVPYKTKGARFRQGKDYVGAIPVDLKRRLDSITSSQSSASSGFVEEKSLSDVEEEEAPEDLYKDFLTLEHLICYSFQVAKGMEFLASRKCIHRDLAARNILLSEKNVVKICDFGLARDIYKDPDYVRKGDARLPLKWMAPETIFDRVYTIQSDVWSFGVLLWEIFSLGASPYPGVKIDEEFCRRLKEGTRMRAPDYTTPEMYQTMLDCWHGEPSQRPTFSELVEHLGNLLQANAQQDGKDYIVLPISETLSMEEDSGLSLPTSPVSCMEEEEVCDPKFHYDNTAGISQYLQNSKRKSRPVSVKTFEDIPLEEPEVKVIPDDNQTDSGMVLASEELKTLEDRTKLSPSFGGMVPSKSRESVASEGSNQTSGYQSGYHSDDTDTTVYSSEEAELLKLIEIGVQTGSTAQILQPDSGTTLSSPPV

SMILES | % Inhibition at 0.2 μM, VEGFR2 [1] [%] | % Inhibition at 0.2 μM, TEK (TIE2) [2] [%] | % Inhibition at 0.2 μM, MET [3] [%] | % Inhibition at 0.2 μM, FLT3 [4] [%] | % Inhibition at 0.2 μM, DDR2 [5] [%] | p-eIF4E reduction (MKNK1/2 inhibition, in words) [6] | % Inhibition at 0.2 μM, MKNK2 [7] [%] | Concentration giving near-complete inhibition of p-eIF4E ([6]; 3.9-1000 nM) [nM] | inhibition at 0.2 µM ([7]; read-out: % Inhibition at 0.2 μM, MKNK2) [%]
Cc1ccc(C(=O)Nc2ccc(Oc3cc4cn[nH]c4cc3-c3cn[nH]c3)c(F)c2)c(=O)n1-c1ccc(F)cc1 [M1] | 72 | 100 | 100 | 96 | 94 | potent inhibition | 98 |  | 
Cn1ncc2cc(Oc3ccc(NC(=O)c4ccc(CO)n(-c5ccc(F)cc5)c4=O)cc3F)c(-c3cn[nH]c3)cc21 [M2] | 43 | 100 | 93 | 97 | 99 | slightly less so | 95 |  | 
Cc1ccc(C(=O)Nc2ccc(Oc3cc4cnn(C)c4cc3-c3cn[nH]c3)c(F)c2)c(=O)n1-c1ccc(F)cc1 [Merestinib] | 63 | 99 | 98 | 95 | 97 | potent inhibition |  | 62.5 | 98
